The values below come from ChEMBL document CHEMBL1125712 (J Med Chem, 1991).

For assay [1], the system named is aldose reductase (Rattus norvegicus). Description: In vivo inhibition of sorbitol accumulation in the rat following 10 mg/kg p.o. administration. Particulars: at 10 mg/kg.
Assay [2] deals with Aldo-keto reductase family 1 member B1 (Homo sapiens, UniProt P15121). The assay is described as follows: Inhibition of aldose reductase (aldo-keto reductase, AKR1B1) isolated from human placenta.
The test system of assay [3] is aldose reductase (Rattus norvegicus). Description: In vivo inhibition of sorbitol accumulation in the rat following 10 mg/kg p.o. administration; Not significant. As to conditions: at 10 mg/kg.

The source made the active and inactive calls. No cut-off for these calls is given here.

For the compound `O=C(O)Cc1nn(Cc2nc3c(F)ccc(F)c3s2)c(=O)c2ccccc12`, in assay [1], the inhibition came out at 73%. Further, it took 0.005 µM to reach half-maximal inhibition in assay [2] (IC50). Regarding `O=C(O)Cc1nn(Cc2nc3cc(O)cc(O)c3s2)c(=O)c2ccccc12`, 0.087 µM corresponded to half-maximal inhibition in assay [2] (IC50).

`C[S+]([O-])c1ccc2sc(Cn3nc(CC(=O)O)c4ccccc4c3=O)nc2c1` (centres undefined) registered an IC50 in assay [2] of 4.3 µM. As for `O=C(O)Cc1nn(Cc2nc3ccccc3s2)c(=O)c2ccc([N+](=O)[O-])cc12`, the IC50 in assay [2] is 0.046 µM. For the same compound, the inhibition entry in assay [3] was “inactive”.

Regarding `O=C(O)Cc1nn(Cc2nc3ccccc3s2)c(=O)c2cc(Cl)c(Cl)cc12`, in assay [2], the IC50 amounted to 0.01 µM. Same read-out and setting: under `CC(c1nc2cc(C(F)(F)F)ccc2s1)n1nc(CC(=O)O)c2ccccc2c1=O` (centres undefined) stands 0.037 µM. As for `O=C(O)Cc1nn(Cc2nc3cc(Cl)cc(F)c3s2)c(=O)c2ccccc12`, in assay [1], the inhibition came out at 63%. In assay [2], this compound gave a half-inhibitory concentration (IC50) of 0.005 µM. Take `O=C(O)Cc1nn(Cc2cccc(-c3nc4ccccc4s3)c2)c(=O)c2ccccc12`: the IC50 in assay [2] turned out to be 5.7 µM. This counts as single-digit micromolar.

The compound `O=C(O)Cc1nn(Cc2nc3ccc(Br)cc3s2)c(=O)c2ccccc12` displayed an IC50 in assay [2] of 0.026 µM.

In assay [2], `O=C(O)Cc1nn(Cc2nc3c(Cl)cc(Cl)cc3s2)c(=O)c2ccccc12` registered an IC50 of 0.17 µM. As for `O=C(O)Cc1nn(Cc2nc3cc(Cl)c(F)cc3s2)c(=O)c2ccccc12`, the IC50 in assay [2] was 0.11 µM. Still for that read-out and setting: under `O=C(O)Cc1nn(Cc2nc3cc(O)ccc3s2)c(=O)c2ccccc12` stands 0.041 µM. As to `O=C(O)Cc1nn(Cc2nc3cc(F)cc(Cl)c3s2)c(=O)c2ccccc12`, the inhibition in assay [1] was 58%. Inhibition in assay [2] was half-maximal at 0.0062 µM (IC50). `O=C(O)Cc1nn(Cc2nc3cccc(C(F)(F)F)c3s2)c(=O)c2ccccc12` returned an inhibition in assay [1] of 80%. In assay [2], this compound registered a half-maximal inhibitory concentration (IC50) of 0.01 µM.

The compound `Cc1cccc2c(CC(=O)O)nn(Cc3nc4ccccc4s3)c(=O)c12` displayed an IC50 in assay [2] of 0.42 µM. Also, in assay [3], the inhibition entry is “inactive”. Compound `O=C(O)Cc1nn(CCc2nc3cc(C(F)(F)F)ccc3s2)c(=O)c2ccccc12` showed a 50% inhibitory concentration (IC50) in assay [2] of 0.46 µM. With `O=C(O)Cc1nn(Cc2nc3c(C(F)(F)F)cccc3s2)c(=O)c2ccccc12`, the inhibition in assay [1] turned out to be 61%. Moreover, half-maximal inhibition in assay [2] (IC50) was put at 0.025 µM. In assay [2], `CSc1ccc2sc(Cn3nc(CC(=O)O)c4ccccc4c3=O)nc2c1` returned an IC50 of 0.06 µM. That is a double-digit nanomolar value. Compound `O=C(O)Cc1nn(Cc2nc3ccc(O)cc3s2)c(=O)c2ccccc12` came in with an IC50 in assay [2] of 1 µM. The same measure, in the same setting: under `COc1ccc2c(=O)n(Cc3nc4ccccc4s3)nc(CC(=O)O)c2c1` stands 0.028 µM; under `O=C1NC(=O)C2(CN(Cc3nc4ccccc4s3)c3ccc(Cl)cc32)N1` (centres undefined), 0.037 µM. The compound `O=C(O)Cc1nn(Cc2nc3cc(C(F)(F)F)cc(F)c3s2)c(=O)c2ccccc12` gave an IC50 in assay [2] of 0.017 µM.

`CC(C)c1ccc2c(=O)n(Cc3nc4ccccc4s3)nc(CC(=O)O)c2c1` showed an IC50 in assay [2] of 0.11 µM.

`O=C(O)Cc1nn(Cc2nc3c(Cl)c(Cl)ccc3s2)c(=O)c2ccccc12` yielded an IC50 in assay [2] of 0.1 µM. Consider `COc1ccc2nc(Cn3nc(CC(=O)O)c4ccccc4c3=O)sc2c1`, for which the IC50 in assay [2] was determined as 4.2 µM. `O=C(O)Cc1nn(Cc2nc3cccc(Cl)c3s2)c(=O)c2ccccc12` had an inhibition in assay [1] of 52%. For the same compound, the IC50 in assay [2] came out at 0.001 µM.

Consider `O=C(O)Cc1nn(Cc2nc3ccccc3s2)c(=O)c2ccc(C(F)(F)F)cc12`, for which, in assay [2], 0.018 µM corresponded to half-maximal inhibition (IC50). In assay [3], the inhibition result is “inactive”. The compound `O=C(O)Cc1nn(Cc2nc3cc(Cl)ccc3s2)c(=O)c2ccccc12` gave an inhibition in assay [1] of 73%. In addition, inhibition in assay [2] was half-maximal at 0.0071 µM (IC50). `O=C(O)Cc1nn(Cc2nc3cccc(Br)c3s2)c(=O)c2ccccc12` came in with an inhibition in assay [1] of 71%. This compound displayed a half-maximal inhibitory concentration (IC50) in assay [2] of 0.015 µM. `O=C(O)Cc1nn(CSc2nc3ccccc3s2)c(=O)c2ccccc12` showed a half-maximal inhibitory concentration (IC50) in assay [2] of 0.081 µM. That is a double-digit nanomolar value. Take `O=C(O)Cc1nn(Cc2nc3c(F)c(F)ccc3s2)c(=O)c2ccccc12`: the inhibition in assay [1] turned out to be 82%. In assay [2], it took 0.01 µM to reach half-maximal inhibition (IC50). With `COc1cc2sc(Cn3nc(CC(=O)O)c4ccccc4c3=O)nc2cc1C(F)(F)F`, the IC50 in assay [2] turned out to be 4.3 µM. `O=C(O)Cc1nn(Cc2nc3ccccc3s2)c(=O)c2cc(Br)ccc12` came in with an inhibition in assay [1] of 42%. Further, the half-inhibitory concentration (IC50) in assay [2] stood at 0.69 µM. The compound `COc1cc(C(F)(F)F)c2sc(Cn3nc(CC(=O)O)c4ccccc4c3=O)nc2c1` yielded an IC50 in assay [2] of 0.66 µM. Still for that read-out and setting: under `O=C(O)Cc1nn(Cc2nc3ccccc3s2)c(=O)c2cc(Cl)ccc12` stands 0.015 µM; under `O=C(O)Cc1nn(Cc2nc3cc(Cl)cc(C(F)(F)F)c3s2)c(=O)c2ccccc12`, 0.62 µM. In turn, `O=C(O)Cc1nn(Cc2nc3cc(F)cc(C(F)(F)F)c3s2)c(=O)c2ccccc12` gave an IC50 in assay [2] of 0.1 µM. The inhibition entry in assay [3] was “inactive”. As for `O=C(O)Cc1nn(Cc2nc3ccc(Br)cc3s2)c(=O)c2cc(Cl)c(Cl)cc12`, in assay [2], 1.8 µM corresponded to half-maximal inhibition (IC50). This counts as single-digit micromolar.

`O=C(O)Cc1nn(Cc2ccc(-c3nc4ccccc4s3)cc2)c(=O)c2ccccc12`: the IC50 in assay [2] is greater than 1 µM.

The compound `O=C(O)Cc1nn(Cc2nc3ccccc3s2)c(=O)c2c(F)cccc12` had a 50% inhibitory concentration (IC50) in assay [2] of 0.03 µM. The compound `CS(=O)(=O)c1ccc2sc(Cn3nc(CC(=O)O)c4ccccc4c3=O)nc2c1` came in with an IC50 in assay [2] of 1.7 µM. The inhibition result in assay [3] was “inactive”. For the compound `O=C(O)Cc1nn(Cc2nc3cc(C(F)(F)F)cc(Cl)c3s2)c(=O)c2ccccc12`, the inhibition in assay [1] turned out to be 26%. The compound also displayed an IC50 in assay [2] of 0.094 µM. For the compound `Cc1ccc2c(=O)n(Cc3nc4ccccc4s3)nc(CC(=O)O)c2c1`, in assay [2], the IC50 amounted to 0.027 µM. In other words, the double-digit nanomolar range. Regarding `CN1C(C(=O)Nc2nc3ccccc3s2)=C(O)c2ccccc2S1(=O)=O`, inhibition in assay [2] was half-maximal at 5.5 µM (IC50). `O=C(O)Cc1nn(Cc2nc3ccccc3s2)c(=O)c2ccc(Cl)cc12` returned an IC50 in assay [2] of 0.034 µM.

In assay [1], `CC(c1nc2cc(Cl)ccc2s1)n1nc(CC(=O)O)c2ccccc2c1=O` (centres undefined) showed an inhibition of 53%. Half-maximal inhibition in assay [2] (IC50) was put at 0.026 µM.

In the case of `Cc1ccc2nc(Cn3nc(CC(=O)O)c4ccccc4c3=O)sc2c1F`, the IC50 in assay [2] is 0.32 µM. On to `COc1ccc2c(CC(=O)O)nn(Cc3nc4ccccc4s3)c(=O)c2c1`, for which, in assay [2], the midpoint of inhibition, the IC50, lay at 0.026 µM. The inhibition result in assay [3] is “inactive”. For `O=C(O)Cc1nn(Cc2ccc(Br)cc2F)c(=O)c2ccccc12` [PONALRESTAT], the IC50 in assay [2] amounted to 0.021 µM. Still for that read-out and setting: under `COc1cc(OC)c2sc(Cn3nc(CC(=O)O)c4ccccc4c3=O)nc2c1` stands 0.7 µM. With `O=C(O)Cc1nn(Cc2nc3c(ccc4ccccc43)s2)c(=O)c2ccc(Cl)cc12` [listing 1 of 2 here], the IC50 in assay [2] turned out to be 0.35 µM. For `O=C(O)Cc1nn(Cc2nc3ccc(C(F)(F)F)cc3s2)c(=O)c2ccccc12`, the inhibition in assay [1] came to 65%. The same compound had an IC50 in assay [2] of 0.07 µM. Turning to `CC(C)c1ccc2nc(Cn3nc(CC(=O)O)c4ccccc4c3=O)sc2c1`, in assay [2], the IC50 was 3.2 µM. In assay [2], `O=C(O)Cc1nn(Cc2nc3c(ccc4ccccc43)s2)c(=O)c2ccc(Cl)cc12` [listing 2 of 2 here] returned an IC50 of 0.3 µM. Same read-out and setting: to `O=C(O)Cc1nn(Cc2nc3ccccc3s2)c(=O)c2cc([N+](=O)[O-])ccc12` belongs 0.033 µM; to `O=C(O)Cc1nn(Cc2nc3ccccc3s2)c(=O)c2ccc(Br)cc12`, 0.012 µM; to `O=C1NC(=O)C2(CN(Cc3ccc(F)cc3)c3ccc(F)cc32)N1` (centres undefined), 0.14 µM.

Regarding `O=C(O)Cc1nn(-c2nc3ccccc3s2)c(=O)c2ccccc12`, the IC50 in assay [2] was greater than 1 µM. On to `O=C(O)Cc1nn(Cc2nc3c(Cl)cccc3s2)c(=O)c2ccccc12`, for which the inhibition in assay [1] stood at 63%. This compound also came in with an IC50 in assay [2] of 0.0035 µM.

Broadly, the inhibition is how much of the control response was suppressed. Broadly, the IC50 is the midpoint of a concentration-inhibition curve.
